Legend:
[1] = test system: human breast cancer cells (BT474); test: ATPLite cell viability, CTB003 with chemotherapeutic drug; format: cell-based; conditions: combination with CTB003
Protocol: (§1) The cell lines selected for study included: human breast cancer cells (BT474), human colon cancer cells (SW620), human lung cancer cells (A437), human colon cancer cells (SW1116), and human pancreatic cancer cells (Panc 1). All cells were purchased from ATCC.
(§2) After culture at 37° C. overnight, cell viability was determined using the ATPLite kit according to the manufacturer's instructions (Packard Instruments, Meriden, Conn.): add 50 μl of cell lysis buffer and then 50 μl of substrate buffer. The reaction was counted in a luminescent reader. Cell viability was calculated as (cpm of treated cells/cmp of control cells)×100%.

[2] = test system: MDA231 human breast cancer cell line; test: Xenograft model, tumor size; format: in vivo, Balb/c nude mice
From the text: Human cancer cell lines that were used for generation of murine xenograft models of human cancer are: a) MDA231 human breast cancer cell line; b) 7402 human liver cancer cell line; c) Colo205 human colon cancer cell lines; and d) MIAcapa human pancreatic cancer cell line. All cells were purchased from ATCC, and cultured in DMEM supplemented with 10% FCS.
Six (6) to 8 week-old Balb/c nude mice were inoculated subcutaneously with 1×10^7 human cancer cells. At day 7-14 after tumor inoculation depending on inoculated tumor cell lines, over 90% mice developed viable tumor mass. The tumor-bearing mice were randomly divided into two groups: one was untreated control group, and another was CTB003 treated group. Human cancer tumor growth was evaluated by sizes of tumor. After inoculation, tumor sizes were measured weekly.
The treatment was repeated six times within three weeks.
(§3) Six (6) to 8 week-old Balb/c nude mice were inoculated subcutaneously with 1×10^7 human MDA231 breast cancer cells. […] Human breast cancer tumor growth was evaluated by measuring the size of tumor. After inoculation the tumor sizes were measured in mice weekly. […]
as §3

[3] = test system: human colon cancer cells (SW1116); test: ATPLite cell viability, CTB003 with chemotherapeutic drug or mono-specific antibody; format: cell-based; conditions: for effect on CTB003 killing: combination with CTB003
Protocol: as §1, §2
After culture at 37° C. for 16 h, cell viability was determined using the ATPLite kit according to the manufacturer's instructions (Packard Instruments, Meriden, Conn.): add 50 μl of cell lysis buffer and then 50 μl of substrate buffer. The reaction was counted in a luminescent reader. Cell viability was calculated as (cpm of treated cells/cmp of control cells)×100%.

[4] = test system: human lung cancer cells (A437); test: ATPLite cell viability, CTB003 with chemotherapeutic drug; format: cell-based; conditions: combination with CTB003
Protocol: as §1, §2

[5] = test system: human pancreatic cancer cells (Panc-1); test: as above; format: cell-based; conditions: combination with CTB003
Protocol: as §1, §2

[6] = test system: human colon cancer cells (SW620); test: as above; format: cell-based; conditions: combination with CTB003
Protocol: as §1, §2

[7] = test system: Human B lymphoma cells (Ramos); test: ATPLite cell viability, apoptosis-inducing activity; format: cell-based; conditions: 10-1000 ng/ml antibody, 16 h
Protocol: (§4) Tumor cells may express differential levels of cell surface of TRAIL-R1 and TRAIL-R2, therefore a monospecific antibody directed against either TRAIL-R1 or TRAIL-R2 may not able to bind to and induce apoptosis of all tumor cells when administered alone. […] Human T leukemia cells (Jurkat) only express TRAIL-R2 but not TRAIL-R1. Human B lymphoma cells (Ramos) express high levels of TRAIL-R1 but low levels of TRAIL-R2.
After culture at 37° C. for 16 h, the cell viability of each culture was determined using the ATPLite kit according to the manufacturer's instructions (Packard Instruments, Meriden, Conn.): add 50 μl of cell lysis buffer and then 50 μl of substrate buffer. The reaction was counted in a luminescent reader. Cell viability was calculated as (cpm of treated cells/cmp of control cells)×100%.

[8] = test system: Human B lymphoma cells (Ramos); test: Flow cytometry analysis of cell surface binding; conditions: 10 μg/ml antibody; cells express high TRAIL-R1, low TRAIL-R2
From the text: as §4
(§5) 1×10^6 single cells were collected from cell culture medium and washed twice with FACS buffer (PBS containing 5% FCS, 0.1% NaN3, pH7.4). […] After washing twice with 1 ml FACS buffer, cells were further incubated with PE-conjugated goat anti-mouse IgG1 antibody on ice for 30 minutes. After washing twice with 1 ml FACS buffer, cells were suspended in 0.5 ml FACS buffer and 10,000 viable cells were analyzed by FACScan flow cytometer.

[9] = test system: Human T leukemia cells (Jurkat); test: Flow cytometry analysis of cell surface binding; conditions: 10 μg/ml antibody; cells express TRAIL-R2 but not TRAIL-R1
From the text: as §4, §5

[10] = test system: binding of CTB003 to TRAIL-R2; test: Competitive inhibition ELISA with polypeptides; set-up: species or system human; conditions: 1 μg/ml CTB003, various concentrations of peptide
Protocol: (§6) ELISA plate was coated with 1 μg/ml TRAIL-R2-Fc fusion protein in PBS at 4° C. overnight. After washing three times with PBS, the plate was blocked with 3% BSA PBS at room temperature for one hour. […] The unbound antibodies were removed by washing three time with PBS, and then HRP-conjugated goat anti-mouse IgG1 was added at 37° C. for 30 minutes. After washing three times with PBS, TMB substrate buffer was added for 10 minutes and then the reaction was stopped by adding 2N H2SO4. The values of optical density were recorded in a ELISA plate reader with a dual wavelength at 450 nm/650 nm.
as §6, with “μg/ml TRAIL-R1 or” for “μg/ml”

[11] = test system: binding of humanized chimeric CTB003 to TRAIL-R2; test: Competitive inhibition ELISA with polypeptides; set-up: species or system human; conditions: various concentrations of peptide
Protocol: as §6, with “μg/ml TRAIL-R1 or” for “μg/ml”

[12] = test system: binding of CTB003 to TRAIL-R1; test: Competitive inhibition ELISA with polypeptides; set-up: species or system human; conditions: 1 μg/ml CTB003, various concentrations of peptide
Protocol: as §6, with “μg/ml TRAIL-R1 or” for “μg/ml”

[13] = test system: binding of humanized chimeric CTB003 to TRAIL-R1; test: Competitive inhibition ELISA with polypeptides; set-up: species or system human; conditions: various concentrations of peptide
Protocol: as §6, with “μg/ml TRAIL-R1 or” for “μg/ml”

binding of CTB003 to TRAIL-R2, sequence (as listed by the source): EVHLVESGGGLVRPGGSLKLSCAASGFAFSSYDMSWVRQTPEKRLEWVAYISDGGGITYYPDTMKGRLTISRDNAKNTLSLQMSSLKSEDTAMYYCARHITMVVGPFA
binding of CTB003 to TRAIL-R2, sequence (as listed by the source): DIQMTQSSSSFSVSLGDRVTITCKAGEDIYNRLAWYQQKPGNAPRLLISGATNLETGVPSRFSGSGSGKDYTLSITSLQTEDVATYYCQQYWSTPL
binding of CTB003 to TRAIL-R2, sequence (O14763 56-210 partner limits assumed): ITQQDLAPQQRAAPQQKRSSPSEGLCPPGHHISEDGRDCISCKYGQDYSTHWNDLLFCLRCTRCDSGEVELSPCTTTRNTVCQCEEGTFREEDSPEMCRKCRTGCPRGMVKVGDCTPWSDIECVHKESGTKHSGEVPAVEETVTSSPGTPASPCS
binding of CTB003 to TRAIL-R1, sequence (O00220 24-239 partner limits assumed): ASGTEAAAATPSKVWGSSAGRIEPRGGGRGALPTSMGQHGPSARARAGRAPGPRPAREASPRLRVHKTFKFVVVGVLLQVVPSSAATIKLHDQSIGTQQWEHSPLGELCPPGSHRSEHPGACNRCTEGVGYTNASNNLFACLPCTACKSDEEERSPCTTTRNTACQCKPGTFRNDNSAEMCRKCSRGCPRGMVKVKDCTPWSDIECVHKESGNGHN
binding of humanized chimeric CTB003 to TRAIL-R1, sequence (as listed by the source, change not shown): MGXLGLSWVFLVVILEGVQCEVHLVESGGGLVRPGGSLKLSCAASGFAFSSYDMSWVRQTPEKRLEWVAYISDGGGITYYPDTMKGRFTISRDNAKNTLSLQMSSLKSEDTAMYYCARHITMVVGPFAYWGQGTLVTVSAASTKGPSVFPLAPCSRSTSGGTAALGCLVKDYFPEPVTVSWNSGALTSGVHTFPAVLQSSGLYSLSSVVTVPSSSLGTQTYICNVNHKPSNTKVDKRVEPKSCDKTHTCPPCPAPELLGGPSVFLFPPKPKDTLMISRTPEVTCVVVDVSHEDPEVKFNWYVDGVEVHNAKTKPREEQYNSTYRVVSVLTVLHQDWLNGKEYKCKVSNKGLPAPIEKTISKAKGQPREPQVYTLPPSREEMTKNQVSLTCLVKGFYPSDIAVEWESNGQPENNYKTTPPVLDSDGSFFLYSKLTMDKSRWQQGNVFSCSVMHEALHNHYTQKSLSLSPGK
binding of humanized chimeric CTB003 to TRAIL-R1, sequence (as listed by the source, change not shown): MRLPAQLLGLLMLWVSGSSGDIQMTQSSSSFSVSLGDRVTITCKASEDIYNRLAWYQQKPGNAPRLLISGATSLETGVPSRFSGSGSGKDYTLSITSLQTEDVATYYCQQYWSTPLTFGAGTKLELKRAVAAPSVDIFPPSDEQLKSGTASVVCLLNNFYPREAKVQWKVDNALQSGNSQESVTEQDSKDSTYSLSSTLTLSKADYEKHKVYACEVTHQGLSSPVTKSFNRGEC
binding of humanized chimeric CTB003 to TRAIL-R1, sequence (O00220 24-239 partner limits assumed): as the sequence (O00220 24-239 partner limits assumed) above
binding of humanized chimeric CTB003 to TRAIL-R2, sequence (O14763 56-210 partner limits assumed): as the sequence (O14763 56-210 partner limits assumed) above

`COc1cccc2c1C(=O)c1c(O)c3c(c(O)c1C2=O)C[C@@](O)(C(=O)CO)C[C@@H]3O[C@H]1C[C@H](N)[C@H](O)[C@H](C)O1` [Adriamycin, reference compound] was tested. Which “effect on CTB003 killing” value [1] did it give?
The value was “synergistically enhanced CTB003 killing in a dose-dependent fashion”.

What about the effect on tumor ([2]; Adriamycin alone, 100 μg per dose i.p. twice a week for three times) of the same molecule?
The effect on tumor was “tumor inhibition was observed but tumor size reduction was not remarkable”.

`CCc1c2c(nc3ccc(OC(=O)N4CCC(N5CCCCC5)CC4)cc13)-c1cc3c(c(=O)n1C2)COC(=O)[C@]3(O)CC` [CTP-11, reference compound] was tested. Which “effect on CTB003 killing” value [3] did it give?
The value was “synergistically enhanced CTB003 killing in a dose-dependent fashion”.

`N.N.[Cl][Pt][Cl]` [Cisplatin, reference compound] was tested. Which “effect on CTB003 killing” value [4] did it give?
Its value is “synergistically enhanced CTB003 killing in a dose-dependent fashion”.

Which “effect on CTB003 killing” value [5] does the source give for `Nc1ccn([C@@H]2O[C@H](CO)[C@@H](O)C2(F)F)c(=O)n1` [Gemcitabine, reference compound] here?
Its value is “synergistically enhanced CTB003 killing in a dose-dependent fashion”.

How did the “effect on CTB003 killing” value [6] turn out when `CC(=O)O[C@H]1C(=O)[C@@]2(C)[C@H]([C@H](OC(=O)c3ccccc3)[C@]3(O)C[C@H](OC(=O)[C@H](O)[C@@H](NC(=O)c4ccccc4)c4ccccc4)C(C)=C1C3(C)C)[C@]1(OC(C)=O)CO[C@@H]1C[C@@H]2O` [Taxol] was run?
Its value is “synergistically enhanced CTB003 killing in a dose-dependent fashion”.

Which “effect on CTB003 killing” value [3] does the source give for “CTB006: Murine monospecific antibody directed to TRAIL-R2 receptor; hybridoma CGMCC 1691” here?
Its value is “synergistically enhanced CTB003 killing in a dose-dependent fashion”.

What about the “cell killing by antibody alone” value ([3]; single antibody) of the same molecule?
The value was “did not induce cell killing”.

What about the “susceptibility to antibody-induced apoptosis” value [7] of the same molecule?
Its value is “not susceptible”.

What about the effect on tumor ([2]; CTB006 alone, 100 μg i.p. twice a week for three times) of the same molecule?
Its effect on tumor is “tumor inhibition was observed but tumor size reduction was not remarkable”.

And the cell surface staining [8]?
The cell surface staining was “only weakly stained”.

What about the cell surface staining [9] of the same molecule?
Its cell surface staining is “positively stained”.

How did the “inhibition of antibody binding” value [10] turn out when “MVKVGDCTPWSDIECVHKESGTKHSGEAPA [peptide G, TRAIL-R2 (aa164-aa193), reference compound]” was run?
Its value is “inhibited the binding of CTB003 to TRAIL-R2 in a dose-dependent manner”.

Which “inhibition of antibody binding” value [10] does the source give for “RKCRTGCPRGMVKVGDCTPWSDIECVHKES [peptide F, TRAIL-R2 (aa154-aa183), reference compound]” here?
The value was “inhibited the binding of CTB003 to TRAIL-R2 in a dose-dependent manner”.

Which results are given for VGDCTPWSDIECVHKE [peptide H]?
inhibition of antibody binding [10]: inhibited the binding of CTB003 to TRAIL-R2 in a dose-dependent manner; inhibition of antibody binding [11]: inhibited the binding of humanized chimeric CTB003 to TRAIL-R2 in a dose-dependent manner; inhibition of antibody binding [12]: inhibited the binding of CTB003 to TRAIL-R1 in a dose-dependent manner; inhibition of antibody binding [13]: inhibited the binding of humanized chimeric CTB003 to TRAIL-R1 in a dose-dependent manner

With VKDCTPWSDIECVHKE [peptide I] as the molecule, how does the “inhibition of antibody binding” value [10] read?
The value was “inhibited the binding of CTB003 to TRAIL-R2 in a dose-dependent manner”.

And the “inhibition of antibody binding” value [11]?
Its value is “inhibited the binding of humanized chimeric CTB003 to TRAIL-R2 in a dose-dependent manner”.

What about the “inhibition of antibody binding” value [12] of the same molecule?
The value was “inhibited the binding of CTB003 to TRAIL-R1 in a dose-dependent manner”.

And the “inhibition of antibody binding” value [13]?
Its value is “inhibited the binding of humanized chimeric CTB003 to TRAIL-R1 in a dose-dependent manner”.
